pIC50: −log10 of the molar value.
Experiment: Antagonist activity at CCR2 in human THP1 cells assessed as inhibition of MCP1-induced chemotaxis after 3 hrs

First: N[C@]1(c2ccccc2)CC[C@H](N2CC(NC(=O)CNC(=O)c3cccc(C(F)(F)F)c3)C2)CC1
Second: COc1ccc([C@]2(O)CC[C@@H](N3CC(NC(=O)CNC(=O)c4cccc(C(F)(F)F)c4)C3)CC2)cc1
The pIC50 of the first is 0.37 log units lower: 6.80 for the first, 7.17 for the second.

Compared with O=C(CNC(=O)c1cccc(C(F)(F)F)c1)NC1CN([C@H]2CC[C@](O)(c3ccc4c(c3)OCO4)CC2)C1, O=C(CNC(=O)c1cccc(C(F)(F)F)c1)NC1CN([C@H]2CC[C@](O)(c3ccc4c(c3)OCC4)CC2)C1 is 0.29 log units lower in pIC50: 7.57 for the first, 7.28 for the second. The first is the more potent here.

Compared with O=C(CNC(=O)c1cccc(C(F)(F)F)c1)NC1CN([C@H]2CC[C@H](c3ccncc3O)CC2)C1, COc1cnccc1[C@H]1CC[C@H](N2CC(NC(=O)CNC(=O)c3cccc(C(F)(F)F)c3)C2)CC1 is 0.31 log units higher in pIC50: 7.24 for the first, 7.55 for the second. The second is the more potent here.

Compared with O=C(CNC(=O)c1cccc(C(F)(F)F)c1)NC1CN([C@H]2CC[C@H](c3ccc(O)cn3)CC2)C1, O=C(CNC(=O)c1cccc(C(F)(F)F)c1)NC1CN([C@H]2CC[C@H](c3ccc(O)cc3)CC2)C1 is 0.47 log units lower in pIC50: 7.85 for the first, 7.38 for the second.

Going from COc1ccc([C@H]2CC[C@H](N3CC(NC(=O)CNC(=O)c4cccc(C(F)(F)F)c4)C3)CC2)cn1 to COc1cc([C@H]2CC[C@H](N3CC(NC(=O)CNC(=O)c4cccc(C(F)(F)F)c4)C3)CC2)ccn1, the pIC50 falls from 7.96 to 6.77 (1.19 log units).

First: O=C(CNC(=O)c1cccc(C(F)(F)F)c1)NC1CN([C@H]2CC[C@H](c3cccnc3)CC2)C1
Second: COc1ccc([C@H]2CC[C@H](N3CC(NC(=O)CNC(=O)c4cccc(C(F)(F)F)c4)C3)CC2)cc1
The pIC50 of the first is 0.32 log units lower: 7.28 for the first, 7.60 for the second.

O=C(CNC(=O)c1cccc(C(F)(F)F)c1)NC1CN([C@H]2CC[C@H](c3ccc4nc[nH]c4c3)CC2)C1 and O=C(CNC(=O)c1cccc(C(F)(F)F)c1)NC1CN([C@H]2CC[C@@H](c3ccc4c(c3)OCO4)CC2)C1 are within 0.2 log units of each other in pIC50: 7.68 for the first, 7.82 for the second.

First: O=C(CNC(=O)c1cccc(C(F)(F)F)c1)NC1CN([C@H]2CC[C@H](c3ccc(N4CCCC4)cc3)CC2)C1
Second: O=C(CNC(=O)c1cccc(C(F)(F)F)c1)NC1CN([C@H]2CC[C@H](c3ccc(C(=O)O)cc3)CC2)C1
The pIC50 of the first is 0.73 log units higher: 6.62 for the first, 5.89 for the second.

— BindingDB's records for doi:10.1016/j.bmcl.2011.06.080 (Johnson & Johnson Pharmaceutical Research and Development, 2011)
